Source: patent US20190284168A1, “PYRAZOLE DERIVATIES AS SGC STIMULATORS” (IRONWOOD PHARMACEUTICALS, INC., priority 2014, published 2019)

These compounds were tested against T1, soluble guanylate cyclase (sGC) (Homo sapiens, UniProt Q02108+Q02153) (assay: sGC-HEK-cGMP assay with LC/MS detection). Settings: HEK293 whole cells, LC/MS detection of cGMP, 10 μM DETA-NONOate; 50% of high control response (30 μM Compound Y); read-out: Absolute EC50 (nM)- binned (~).
T1 construct: endogenously expressing soluble guanylate cyclase (sGC); endogenous in cells; host or cells: HEK293
T1 sequence (Q02153 1-619): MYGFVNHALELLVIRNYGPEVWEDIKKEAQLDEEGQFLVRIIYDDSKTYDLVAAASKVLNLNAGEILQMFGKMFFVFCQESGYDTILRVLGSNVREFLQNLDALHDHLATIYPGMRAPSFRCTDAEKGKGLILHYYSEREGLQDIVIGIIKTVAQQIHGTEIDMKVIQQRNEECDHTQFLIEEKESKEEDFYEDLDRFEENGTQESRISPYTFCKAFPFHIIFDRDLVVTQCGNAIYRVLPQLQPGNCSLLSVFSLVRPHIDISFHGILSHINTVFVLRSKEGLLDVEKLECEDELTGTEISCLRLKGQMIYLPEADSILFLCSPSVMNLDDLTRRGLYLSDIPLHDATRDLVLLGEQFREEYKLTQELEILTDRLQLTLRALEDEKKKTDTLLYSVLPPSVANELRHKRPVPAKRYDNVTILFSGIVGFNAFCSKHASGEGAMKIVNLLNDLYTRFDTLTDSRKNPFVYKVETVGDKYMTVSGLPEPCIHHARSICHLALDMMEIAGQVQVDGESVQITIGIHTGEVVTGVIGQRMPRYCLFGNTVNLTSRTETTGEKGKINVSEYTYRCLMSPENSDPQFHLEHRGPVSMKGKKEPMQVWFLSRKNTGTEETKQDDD
T1 sequence (Q02108 1-690): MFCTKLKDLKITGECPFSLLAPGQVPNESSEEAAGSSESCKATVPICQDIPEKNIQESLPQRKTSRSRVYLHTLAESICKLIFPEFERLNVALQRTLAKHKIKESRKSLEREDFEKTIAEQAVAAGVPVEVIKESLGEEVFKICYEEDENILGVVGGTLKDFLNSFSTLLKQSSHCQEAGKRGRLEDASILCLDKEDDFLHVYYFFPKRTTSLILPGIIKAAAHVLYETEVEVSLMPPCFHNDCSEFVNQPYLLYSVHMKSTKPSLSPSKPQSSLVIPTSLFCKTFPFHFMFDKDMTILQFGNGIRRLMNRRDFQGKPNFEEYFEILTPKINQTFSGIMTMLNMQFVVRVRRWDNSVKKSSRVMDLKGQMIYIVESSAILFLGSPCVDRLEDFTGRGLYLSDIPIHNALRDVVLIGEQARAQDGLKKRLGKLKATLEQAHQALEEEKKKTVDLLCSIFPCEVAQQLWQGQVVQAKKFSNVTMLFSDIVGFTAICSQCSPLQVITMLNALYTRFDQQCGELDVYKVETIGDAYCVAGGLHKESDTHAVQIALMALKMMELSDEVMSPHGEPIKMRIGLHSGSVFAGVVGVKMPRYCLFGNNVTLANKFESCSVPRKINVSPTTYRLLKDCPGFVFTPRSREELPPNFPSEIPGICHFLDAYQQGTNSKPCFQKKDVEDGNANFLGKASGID
Type: cell-based
Experimental: Human embryonic kidney cells (HEK293), endogenously expressing soluble guanylate cyclase (sGC), were used to evaluate the activity of test compounds. Compounds stimulating the sGC enzyme should cause an increase in the intracellular concentration of cGMP. HEK 293 cells were seeded in Dulbecco's Modification of Eagle's Medium supplemented with fetal bovine serum (10% final) and penicillin (100 U/mL)/streptomycin (100 μg/mL) in a 50 μL volume at a density of 1.5×10^4 cells/well in a poly-D-lysine coated 384 well flat bottom plate. Cells were incubated overnight at 37° C. in a humidified chamber with 5% CO2. Medium was aspirated and cells were washed with 1× Hank's Buffered Saline Salt Solution (50 μL). Cells were then incubated for 15 minutes at 37° C. with 50 μL of a 0.5 mM 3-isobutyl-1-methylxanthine (IBMX) solution.
were then added to the assay mixture and the resulting mixture incubated at 37° C. for 20 minutes. After the 20 minute incubation, the assay mixture was aspirated and 10% acetic acid containing 150 ng/mL+3-cGMP (internal standard for LCMS) (50 μL) was added to the cells. The plate was incubated at 4° C. for 30 minutes in the acetic acid solution to stop the reaction and lyse the cells. The plates were then centrifuged at 1,000 g for 3 minutes at 4° C. and the supernatant transferred to a clean reaction plate for LCMS analysis.
cGMP concentrations were determined from each sample using the LCMS conditions below (Table 2) and calculated standard curve.
Data were fit using a 4-parameter fit (log(agonist) vs. response—variable slope) using GraphPad Prism Software v.5. n=2 for all compounds. […] Compounds failing to elicit a minimum response of 50% are reported as >30 μM.
`CSCC[C@H](CO)Nc1nc(-c2cc(-c3ccon3)n(Cc3ccccc3F)n2)ncc1F` [Compound 150, (R)-2-((5-fluoro-2-(1-(2-fluorobenzyl)-5-(isoxazol-3-yl)-1H-pyrazol-3-yl)pyrimidin-4-yl)amino)-4-(methylthio)butan-1-ol] showed an EC50 of less than 100 nM.
Compound `CCCC[C@H](CO)Nc1nc(-c2cc(-c3ccon3)n(Cc3ccccc3F)n2)ncc1F` [Compound 151, (R)-2-((5-fluoro-2-(1-(2-fluorobenzyl)-5-(isoxazol-3-yl)-1H-pyrazol-3-yl)pyrimidin-4-yl)amino)hexan-1-ol] has an EC50 of less than 100 nM.
Work on `CCC[C@H](CO)Nc1nc(-c2cc(-c3ccon3)n(Cc3ccccc3F)n2)ncc1F` [Compound 152, (R)-2-((5-fluoro-2-(1-(2-fluorobenzyl)-5-(isoxazol-3-yl)-1H-pyrazol-3-yl)pyrimidin-4-yl)amino)pentan-1-ol] yielded an EC50 of less than 100 nM.
In the case of `CCC(N)(CC)CNc1nc(-c2cc(-c3ccon3)n(Cc3ccccc3F)n2)ncc1F` [Compound 153, 2-ethyl-N1-(5-fluoro-2-(1-(2-fluorobenzyl)-5-(isoxazol-3-yl)-1H-pyrazol-3-yl)pyrimidin-4-yl)butane-1,2-diamine], the EC50 is reported as 100 to 1000 nM.
Compound `CC(C)C(C)(N)CNc1nc(-c2cc(-c3ccon3)n(Cc3ccccc3F)n2)ncc1F` (stereo not shown) [Compound 154, N1-(5-fluoro-2-(1-(2-fluorobenzyl)-5-(isoxazol-3-yl)-1H-pyrazol-3-yl)pyrimidin-4-yl)-2,3-dimethylbutane-1,2-diamine] has an EC50 of 100 to 1000 nM.
In the case of `CCCC(C)(N)CNc1nc(-c2cc(-c3ccon3)n(Cc3ccccc3F)n2)ncc1F` (stereo not shown) [Compound 155, N1-(5-fluoro-2-(1-(2-fluorobenzyl)-5-(isoxazol-3-yl)-1H-pyrazol-3-yl)pyrimidin-4-yl)-2-methylpentane-1,2-diamine], the EC50 is reported as 100 to 1000 nM.
`CC(C)CC(C)(N)CNc1nc(-c2cc(-c3ccon3)n(Cc3ccccc3F)n2)ncc1F` (stereo not shown) [Compound 156, N1-(5-fluoro-2-(1-(2-fluorobenzyl)-5-(isoxazol-3-yl)-1H-pyrazol-3-yl)pyrimidin-4-yl)-2,4-dimethylpentane-1,2-diamine] showed an EC50 of 100 to 1000 nM.
In the case of `C[C@H]1CCCN(c2nc(-c3cc(-c4ccon4)n(Cc4ccccc4F)n3)ncc2F)[C@H]1C(=O)OCCN1CCOCC1` [Compound 157, (2R,3S)-2-morpholinoethyl 1-(5-fluoro-2-(1-(2-fluorobenzyl)-5-(isoxazol-3-yl)-1H-pyrazol-3-yl)pyrimidin-4-yl)-3-methylpiperidine-2-carboxylate], the EC50 is reported as greater than 1000 nM.
`O=C(Nc1nc(-c2cc(-c3ccon3)n(Cc3ccccc3F)n2)ncc1F)OCCN1CCOCC1` [Compound 158, 2-morpholinoethyl (5-fluoro-2-(1-(2-fluorobenzyl)-5-(isoxazol-3-yl)-1H-pyrazol-3-yl)pyrimidin-4-yl)carbamate] gave an EC50 greater than 1000 nM.
In the case of `Nc1ccc(CNc2nc(-c3cc(-c4ccon4)n(Cc4ccccc4F)n3)ncc2F)cc1O` [Compound 159, 2-amino-5-(((5-fluoro-2-(1-(2-fluorobenzyl)-5-(isoxazol-3-yl)-1H-pyrazol-3-yl)pyrimidin-4-yl)amino)methyl)phenol], the EC50 is reported as greater than 30000 nM.
`O=S(=O)(Nc1ccc(CNc2nc(-c3cc(-c4ccon4)n(Cc4ccccc4F)n3)ncc2F)cc1O)C1CC1` [Compound 160, N-(4-(((5-fluoro-2-(1-(2-fluorobenzyl)-5-(isoxazol-3-yl)-1H-pyrazol-3-yl)pyrimidin-4-yl)amino)methyl)-2-hydroxyphenyl)cyclopropanesulfonamide] was tested, and the EC50 was 100 to 1000 nM.
Compound `CS(=O)(=O)Nc1ccc(CNc2nc(-c3cc(-c4ccon4)n(Cc4ccccc4F)n3)ncc2F)cc1O` [Compound 161, N-(4-(((5-fluoro-2-(1-(2-fluorobenzyl)-5-(isoxazol-3-yl)-1H-pyrazol-3-yl)pyrimidin-4-yl)amino)methyl)-2-hydroxyphenyl)methanesulfonamide] has an EC50 of 100 to 1000 nM.
`O=C(CCNc1nc(-c2cc(-c3ccon3)n(Cc3ccccc3F)n2)ncc1F)OCCN1CCOCC1` [Compound 162, 2-morpholinoethyl 3-((5-fluoro-2-(1-(2-fluorobenzyl)-5-(isoxazol-3-yl)-1H-pyrazol-3-yl)pyrimidin-4-yl)amino)propanoate] showed an EC50 of 100 to 1000 nM.
For `COC(=O)CCNc1nc(-c2cc(-c3ccon3)n(Cc3ccccc3F)n2)ncc1F` [Compound 163, methyl 3-((5-fluoro-2-(1-(2-fluorobenzyl)-5-(isoxazol-3-yl)-1H-pyrazol-3-yl)pyrimidin-4-yl)amino)propanoate], the EC50 was less than 100 nM.
Compound `CC(C)OC(=O)CCNc1nc(-c2cc(-c3ccon3)n(Cc3ccccc3F)n2)ncc1F` [Compound 164, isopropyl 3-((5-fluoro-2-(1-(2-fluorobenzyl)-5-(isoxazol-3-yl)-1H-pyrazol-3-yl)pyrimidin-4-yl)amino)propanoate] has an EC50 of less than 100 nM.
With `CCOC(=O)CCNc1nc(-c2cc(-c3ccon3)n(Cc3ccccc3F)n2)ncc1F` [Compound 165, ethyl 3-((5-fluoro-2-(1-(2-fluorobenzyl)-5-(isoxazol-3-yl)-1H-pyrazol-3-yl)pyrimidin-4-yl)amino)propanoate] the EC50 was 100 to 1000 nM.
For `C=CCN(C)c1nc(-c2cc(-c3ccon3)n(Cc3ccccc3F)n2)ncc1F` [Compound 166, N-allyl-5-fluoro-2-(1-(2-fluorobenzyl)-5-(isoxazol-3-yl)-1H-pyrazol-3-yl)-N-methylpyrimidin-4-amine], the EC50 was greater than 1000 nM.
In the case of `CC(=O)c1cc(-c2ncc(F)c(N3CCC(C(=O)O)(C(C)C)CC3)n2)nn1Cc1ccccc1F` [Compound 179], the EC50 is reported as 100 to 1000 nM.
With `CC(=O)c1cc(-c2ncc(F)c(NCC(O)CO)n2)nn1Cc1ccccc1F` (stereo not shown) [Compound 180] the EC50 was 100 to 1000 nM.
Work on `CC(=O)c1cc(-c2ncc(F)c(N3CCC(C)(C(=O)O)CC3)n2)nn1Cc1ccccc1F` [Compound 181] yielded an EC50 of 100 to 1000 nM.
For `Oc1cccc(F)c1Cn1nc(-c2ncc(F)c(O)n2)cc1-c1ccon1` [Compound 182], the EC50 was greater than 1000 nM.
`Oc1cccc(F)c1Cn1nc(-c2ncc(F)c(NCC(O)(C(F)(F)F)C(F)(F)F)n2)cc1-c1ccon1` [Compound 183] gave an EC50 greater than 1000 nM.
In the case of `Oc1ccc(Cn2nc(-c3ncc(F)c(NCC(O)(C(F)(F)F)C(F)(F)F)n3)cc2-c2ccon2)c(F)c1` [Compound 184], the EC50 is reported as greater than 1000 nM.
In the case of `CC(=O)c1cc(-c2ncc(F)c(NCC(C)(O)C(N)=O)n2)nn1Cc1ccccc1F` (stereo not shown) [Compound 193], the EC50 is reported as greater than 1000 nM.
For `CC(=O)c1cc(-c2ncc(F)c(N[C@@H](CO)C(N)=O)n2)nn1Cc1ccccc1F` [Compound 194, (S)-2-((2-(5-acetyl-1-(2-fluorobenzyl)-1H-pyrazol-3-yl)-5-fluoropyrimidin-4-yl)amino)-3-hydroxypropanamide], the EC50 was greater than 1000 nM.
In the case of `NC(=O)[C@](O)(CNc1nc(-c2cc(-c3ccon3)n(Cc3ccc(O)cc3F)n2)ncc1F)C(F)(F)F` [Compound 195], the EC50 is reported as greater than 1000 nM.
`CS(=O)(=O)c1cc(-c2ncc(F)c(O)n2)nn1Cc1ccccc1F` [Compound 196] showed an EC50 greater than 30000 nM.
`NCC(=O)OCCNc1nc(-c2cc(-c3ccon3)n(Cc3ccccc3F)n2)ncc1F` [Compound 199] gave an EC50 of 100 to 1000 nM.
`O=C(CN1CCCCC1)OCCNc1nc(-c2cc(-c3ccon3)n(Cc3ccccc3F)n2)ncc1F` [Compound 200] showed an EC50 greater than 1000 nM.
`O=C(OCCNc1nc(-c2cc(-c3ccon3)n(Cc3ccccc3F)n2)ncc1F)C1CCCCN1` (stereo not shown) [Compound 202] gave an EC50 of 100 to 1000 nM.
Work on `O=C(OCCNc1nc(-c2cc(-c3ccon3)n(Cc3ccccc3F)n2)ncc1F)c1ccccn1` [Compound 206] yielded an EC50 of less than 100 nM.
